From patent US9592229B2, “Potent anticancer activity via dual compound activation” (priority 2012, dated 2017)

Key:
[1] = tested on: EL4 (murine lymphoma) cells; test: EL4 syngeneic murine tumor model; format: in vivo, C57/BL6 mice; conditions: PAC-1 125 mg/kg in HPβCD once-a-day for three days; tumors weighed after 8 days
Method: EL4 cells (10 million cells per mouse) were injected subcutaneously into mice, the animals were split into four groups and treated with vehicle (2-hydroxypropyl-β-cyclodextrin, HPβCD), 1541B (at 17.5 mg/kg in HPβCD), PAC-1 (125 mg/kg in HPβCD), or 1541B+PAC-1 (17.5 and 125 mg/kg, respectively, in HPβCD). After eight days the mice were sacrificed and the tumors excised and weighed. Error bars equal standard error, and p-values indicated are relative to vehicle control.
To explore the therapeutic utility of this dual procaspase-3 activation strategy, the combination of PAC-1 and 1541B were examined in a murine tumor model.
C57/BL6 mice implanted with EL4 (murine lymphoma) cells were treated with PAC-1 alone (125 mg/kg), 1541B alone (17.5 mg/kg), and PAC-1+1541B (125 mg/kg and 17.5 mg/kg, respectively) once-a-day for three days.

[2] = tested on: procaspase-3 in U-937, A549, BT-549 cell lines; test: Western blot of procaspase-3 cleavage to caspase-3 in cancer cell lines; format: cell-based, human
Source text: FIG. 5. PAC-1/1541B combinations induce rapid and dramatic procaspase-3 maturation and activation. A: The caspase-3/-7-like activity of cancer cell lysates after treatment with the PAC-1/1541B combinations. STS=staurosporine. B: Western blot of various cancer cell lines (using Cell Signaling caspase-3 antibody) after treatment with combinations of PAC-1 and 1541B.
FIG. 6. Data analogous to FIG. 5B with A: HL-60 (human leukemia), B: EL4 (murine lymphoma), C: Hs578T (human breast cancer), and D: Jurkat (human leukemia) cell lines.
FIG. 13. Western blot procaspase3 activation analysis of U-937 cells treated with increasing concentrations of 1541B and either with or without PAC-1.
To determine if the elevation of DEVDase activity was the result of enhanced cleavage of procaspase-3 to caspase-3 facilitated by compound co-treatment, cells treated with PAC-1 and 1541B combinations were assessed by Western blot.
Rather 1541 operates by an allosteric binding and activation mechanism.

MCF-7 cells = test: Protection by a pan-caspase inhibitor against PAC-1/1541B-mediated cell death; format: cell-based; conditions: Q-VD-OPh 25 μM
Source text: The proapoptotic effect of the PAC-1/1541B combination was blocked with the pan-caspase inhibitor Q-VD-OPh, consistent with the involvement of caspases in the mode of cell death (FIG. 10).

Structure (SMILES)	effect on tumor growth [1]	activation of procaspase-3 to caspase-3 (Western blot) [2]	protection against PAC-1/1541B-mediated cell death (MCF-7 cells)
C=CCc1cccc(/C=N/NC(=O)CN2CCN(Cc3ccccc3)CC2)c1O [PAC-1, 2-(4-benzylpiperazin-1-yl)-N-[(2-hydroxy-3-prop-2-enyl-phenyl)methylideneamino]acetamide]	only minimal effect	low/no procaspase-3 activation	–
CC(C)[C@H](NC(=O)c1ccc2ccccc2n1)C(=O)N[C@@H](CC(=O)O)C(=O)COc1c(F)cccc1F [Q-VD-OPh]	–	–	protects against PAC-1/1541B-mediated cell death
